Reference: the SangsterLogP compilation

Work on `O=C1c2ccccc2C(=O)C1c1ccc(Cl)cc1` yielded a logP of 3.61.
Work on `O=[N+]([O-])c1cc(Br)c(O)c(Br)c1` yielded a logP of 3.07.
For `Cc1ccc(C(=O)O)c(C)c1`, the logP was 3.01.
In the case of `CCCCCCCCC(=O)O`, the logP is reported as 3.42.
`O=C(O)CCCCCC(=O)O` showed a logP of 0.61.
`O=C1c2ccccc2C(=O)C1c1ccc(C(F)(F)F)cc1` gave a logP of 3.78.
In the case of `CCCOc1ccc(CC(=O)O)cc1`, the logP is reported as 2.31.
`COc1cc(OC)cc(C2C(=O)c3ccccc3C2=O)c1` gave a logP of 2.86.
Compound `O=C1c2ccccc2C(=O)C1c1ccc(Br)cc1` has a logP of 3.76.
`CC(C)c1cccc(C2C(=O)c3ccccc3C2=O)c1` showed a logP of 4.43.
For `Cc1cccc(C2C(=O)c3ccccc3C2=O)c1`, the logP was 3.46.
In the case of `CC(C)(C)c1cc(C2C(=O)c3ccccc3C2=O)cc(C(C)(C)C)c1`, the logP is reported as 6.86.
Work on `CC(C)(C)c1ccc(C2C(=O)c3ccccc3C2=O)cc1` yielded a logP of 4.88.
`O=C(O)Cc1ccc(I)cc1` showed a logP of 2.53.
`Cc1ccc(C2C(=O)c3ccccc3C2=O)cc1` gave a logP of 3.46.
Compound `COc1cccc(C2C(=O)c3ccccc3C2=O)c1` has a logP of 2.88.
Work on `O=C(O)Cc1ccc(C2CCCCC2)cc1` yielded a logP of 3.81.
In the case of `CCCCCCCCCCC(=O)O`, the logP is reported as 4.42.
For `CCCCCCCCCCCC(=O)O`, the logP was 4.92.
`CCC(C)(C)c1ccc(CC(=O)O)cc1` gave a logP of 3.48.
With `COc1ccc(C2C(=O)c3ccccc3C2=O)cc1` the logP was 2.88.
Compound `O=C1c2ccccc2C(=O)C1c1ccc(-c2ccccc2)cc1` has a logP of 4.79.
Compound `O=C(O)Cc1ccc([N+](=O)[O-])cc1` has a logP of 1.54.
In the case of `CCCc1ccc(CC(=O)O)cc1`, the logP is reported as 2.75.
In the case of `O=C(O)c1cc([N+](=O)[O-])ccc1O`, the logP is reported as 1.98.
For `O=[N+]([O-])c1cc(Cl)c(O)c(Cl)c1`, the logP was 2.96.
For `Cc1cc(C)cc(C2C(=O)c3ccccc3C2=O)c1`, the logP was 4.02.
For `CCc1cc(CC)cc(C2C(=O)c3ccccc3C2=O)c1`, the logP was 4.94.
Compound `CCCCc1ccc(CC(=O)O)cc1` has a logP of 3.25.
For `CCCCCCCCc1ccc(C2C(=O)c3ccccc3C2=O)cc1`, the logP was 6.93.
Work on `CCCCCCc1ccc(CC(=O)O)cc1` yielded a logP of 4.25.
With `Cc1cc(C)c(C(=O)O)c(C)c1` the logP was 3.69.
With `Cc1cc(C)c(C)c(C(=O)O)c1C` the logP was 4.19.
Compound `CC(C)(C)c1cccc(C2C(=O)c3ccccc3C2=O)c1` has a logP of 4.88.
Work on `CC(C)c1cc(C(C)C)cc(C2C(=O)c3ccccc3C2=O)c1` yielded a logP of 5.96.
Work on `CCc1cccc(C2C(=O)c3ccccc3C2=O)c1` yielded a logP of 3.92.
With `O=C1c2ccccc2C(=O)C1c1cccc(C(F)(F)F)c1` the logP was 3.78.
Compound `CCCCCCC(=O)O` has a logP of 2.42.
Compound `O=C(O)Cc1ccc(C2CCCC2)cc1` has a logP of 3.44.
`CCc1ccc(C2C(=O)c3ccccc3C2=O)cc1` gave a logP of 3.92.
In the case of `O=C1c2ccccc2C(=O)C1c1cc(Cl)cc(Cl)c1`, the logP is reported as 4.32.
Work on `O=C(O)Cc1ccccc1` yielded a logP of 1.41.
`CC(C)c1ccc(C2C(=O)c3ccccc3C2=O)cc1` showed a logP of 4.43.
For `CCCCCc1ccc(CC(=O)O)cc1`, the logP was 3.75.
`O=C1c2ccccc2C(=O)C1c1cccc(Cl)c1` gave a logP of 3.61.
